Experiment [1] concerns the target T1, wild-type HCAR2 (Homo sapiens, UniProt Q8TDS4).
T1 construct: expression of the entire length of human HCAR3 and HCAR2 proteins; FLAG (N); 3C protease cleavage site (N); His (C); made in house
It counts as binding. Also noted: SPR sensorgram response, Acifran-HCAR2: unit not given here.

For experiment [2], the system named is wild-type HCAR2. In kind it is binding, human. Also noted: SPR sensorgram response, Acifran-HCAR2: unit not given here.
The next experiment has as its system HCAR2 N86L. The experiment is described as follows: cAMP assay, homology-mutated HCAR2 at residue 86 (N86L). It counts as cell-based, human. In general terms: Cyclic AMP is a second messenger, typically raised through Gs and lowered through Gi signalling.
The subject of the next experiment is HCAR3. The settings on record: cited from earlier work; for affinity difference to HCAR3 compared to HCAR2: previously reported; for higher affinity to HCAR3 than to HCAR2: HCAR3 vs HCAR2.
The target of a further experiment is T2, wild-type HCAR3 (Homo sapiens, UniProt P49019).
T2 construct: expression of the entire length of human HCAR3 and HCAR2 proteins; FLAG (N); 3C protease cleavage site (N); His (C); made in house
The experiment is described as follows: Surface plasmon resonance measurement (Biacore X100), wild-type HCAR3. It counts as binding. The settings on record: 6O, PLA, IBC293, acifran compared. (SPR reads the build-up and loss of mass on a sensor chip optically.)

Another experiment deals with T3, HCAR3 R111A (Homo sapiens, UniProt P49019, R111A).
T3 construct: Full-length variants of HCAR3 and HCAR2, including specific point mutations, were incorporated into pcDNA3.1 vectors; FLAG; expressed in transfected cells
The experiment is described as follows: cAMP assay, HCAR3 R111A mutant. As to conditions: HCAR3 R111A vs WT. It counts as cell-based.

We go through four molecules from article PMC12685177, “Structures of G-protein coupled receptor HCAR3 in complex with selective agonists reveal the basis for ligand recognition and selectivity” (PLOS Biology, 2025).

Molecules are shown by their SMILES. Where “and” joins values, the source holds several entries; their conditions need not be identical. Identical values can stand only once. Like-named read-outs stand apart in the source and are kept apart here.

T1 sequence (Q8TDS4 whole entry): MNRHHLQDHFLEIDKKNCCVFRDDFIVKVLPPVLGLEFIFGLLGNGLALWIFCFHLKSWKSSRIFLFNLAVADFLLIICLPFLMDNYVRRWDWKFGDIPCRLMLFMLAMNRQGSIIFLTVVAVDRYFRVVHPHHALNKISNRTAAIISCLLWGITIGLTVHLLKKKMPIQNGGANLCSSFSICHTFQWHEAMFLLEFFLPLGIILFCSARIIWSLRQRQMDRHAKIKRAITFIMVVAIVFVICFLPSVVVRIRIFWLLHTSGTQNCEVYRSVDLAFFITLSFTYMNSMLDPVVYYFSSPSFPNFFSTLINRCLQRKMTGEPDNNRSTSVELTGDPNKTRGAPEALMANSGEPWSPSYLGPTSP
T2 sequence (P49019 whole entry): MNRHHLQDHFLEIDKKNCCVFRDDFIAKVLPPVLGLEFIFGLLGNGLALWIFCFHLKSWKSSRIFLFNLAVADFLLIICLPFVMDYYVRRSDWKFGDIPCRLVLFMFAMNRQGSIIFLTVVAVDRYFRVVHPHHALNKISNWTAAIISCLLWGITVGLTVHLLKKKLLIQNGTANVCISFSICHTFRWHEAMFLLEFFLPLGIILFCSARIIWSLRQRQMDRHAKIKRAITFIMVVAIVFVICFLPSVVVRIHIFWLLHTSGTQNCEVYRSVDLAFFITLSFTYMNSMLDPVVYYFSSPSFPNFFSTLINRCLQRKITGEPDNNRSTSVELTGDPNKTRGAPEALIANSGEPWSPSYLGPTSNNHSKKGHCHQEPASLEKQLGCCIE
T3 sequence (P49019 whole entry R111A): as the sequence (P49019 whole entry) above, with R111A counted along it
Protocol for HCAR2 N86L: The cAMP levels were quantified using the cAMP-Gi kit from Perkin Elmer (model TRF0263), adhering to the manufacturer’s guidelines. […] After 36 hours, the cells, once rinsed with PBS, were treated with a stimulation buffer,including 500 μM IBMX, and incubated for 30 min in a 384-well plate maintained at 37 °C, with a seeding density of 4,000 cells per well. This step was followed by the addition of 12 μM forskolin to each well, with the incubation continuing for an additional 45 min at the same temperature. Subsequently, each well received 5 μL of the cAMP Eu-cryptate solution and the anti-cAMP-d2 solution, and the mixture was incubated for 1 hour at room temperature [45]. […] The acquired data were analyzed using GraphPad Prism version 9.0, with statistical significance set at p < 0.05. All experimental procedures were replicated three times to ensure accuracy.
Protocol for HCAR3 R111A: Full-length variants of HCAR3 and HCAR2, including specific point mutations, were incorporated into pcDNA3.1 vectors for conducting cAMP assays. The cAMP levels were quantified using the cAMP-Gi kit from Perkin Elmer (model TRF0263), adhering to the manufacturer’s guidelines. […] Cells were transiently transfected with either wild-type or mutant HCAR3 plasmids (at a dosage of 500 ng per well in a 24-well format) using Lipofectamine 3000 (Invitrogen). After 36 hours, the cells, once rinsed with PBS, were treated with a stimulation buffer,including 500 μM IBMX, and incubated for 30 min in a 384-well plate maintained at 37 °C, with a seeding density of 4,000 cells per well. This step was followed by the addition of 12 μM forskolin to each well, with the incubation continuing for an additional 45 min at the same temperature. Subsequently, each well received 5 μL of the cAMP Eu-cryptate solution and the anti-cAMP-d2 solution, and the mixture was incubated for 1 hour at room temperature [45]. Fluorescence readings at 620/665 nm were then gathered using a multimode plate reader (Perkin Elmer EnVision 2105) [46]. The acquired data were analyzed using GraphPad Prism version 9.0, with statistical significance set at p < 0.05. All experimental procedures were replicated three times to ensure accuracy.

For the molecule `CC1(c2ccccc2)OC(C(=O)O)=CC1=O` (stereo not drawn) [Acifran, acifran], the “SPR sensorgram response, Acifran-HCAR2” value was -15.5002 on wild-type HCAR2 [1] (acifran concentration 0.025 (unit not given), c2 value 159.6 (head printed log[M])); -15.3633 on wild-type HCAR2 [1] (acifran concentration 0.025 (unit not given), c2 value 160.6 (head printed log[M])); -16.3767 at wild-type HCAR2 [1] (acifran concentration 0.05 (unit not given), c2 value 159.6 (head printed log[M])); -16.3472 on wild-type HCAR2 [1] (acifran concentration 0.1 (unit not given), c2 value 159.6 (head printed log[M])); -15.8456 on wild-type HCAR2 [1] (acifran concentration 0.4 (unit not given), c2 value 159.6 (head printed log[M])). Moreover, the “affinity difference acifran-HCAR2 vs acifran-HCAR3” value in the experiment on wild-type HCAR2 [2] was ~ 100 fold. Further, the “cAMP response (normalized)” value in the experiment with HCAR2 N86L (Acifran-HCAR2 N86L, log[M] -3, Fig. S12E) was 51.1208 and 61.7941 and 63.8756; in the experiment on HCAR2 N86L (Acifran-HCAR2 N86L, log[M] -4, Fig. S12E) it was 60.2042 and 54.7738 and 52.0221; in the experiment on HCAR2 N86L (Acifran-HCAR2 N86L, log[M] -5, Fig. S12E), 64.2273 and 75.5651 and 74.1332; in the experiment with HCAR2 N86L (Acifran-HCAR2 N86L, log[M] -6, Fig. S12E), 84.0136 and 74.6749; with HCAR2 N86L (Acifran-HCAR2 N86L, log[M] -7, Fig. S12E) it was 89.2308 and 93.0182; with HCAR2 N86L (Acifran-HCAR2 N86L, log[M] -8, Fig. S12E), 92.6771 and 91.0418. The “cAMP response (normalized)” value with HCAR2 N86L (Acifran-HCAR2 N86L, log[M] -9, Fig. S12E) is 100.347 and 91.8401 and 97.0308; in the experiment with HCAR2 N86L (Acifran-HCAR2 N86L, log[M] -10, Fig. S12E), 103.679.
In the case of `O=C(O)C(O)Cc1ccccc1` [PLA, D-phenyllactic acid], the “cAMP response (normalized)” value in the experiment on HCAR2 N86L (PLA-HCAR2 N86L, log[M] -3, Fig. S14D) is 52.7872 and 58.3693 and 59.0285; in the experiment on HCAR2 N86L (PLA-HCAR2 N86L, log[M] -4, Fig. S14D), 77.5234 and 72.7009 and 60.409; in the experiment with HCAR2 N86L (PLA-HCAR2 N86L, log[M] -5, Fig. S14D) it was 76.3988 and 76.6951 and 70.3605; in the experiment with HCAR2 N86L (PLA-HCAR2 N86L, log[M] -6, Fig. S14D), 100.996 and 89.6375 and 92.8244; in the experiment with HCAR2 N86L (PLA-HCAR2 N86L, log[M] -7, Fig. S14D), 92.0146 and 97.7923 and 90.5493; with HCAR2 N86L (PLA-HCAR2 N86L, log[M] -8, Fig. S14D) it was 94.5951 and 98.3127 and 96.313. Also, the “cAMP response (normalized)” value in the experiment with HCAR2 N86L (PLA-HCAR2 N86L, log[M] -9, Fig. S14D) was 99.4667 and 89.0551 and 95.4388; in the experiment with HCAR2 N86L (PLA-HCAR2 N86L, log[M] -10, Fig. S14D) it was 94.992 and 94.7429 and 103.357. Also, the “affinity difference to HCAR3 compared to HCAR2” value (“affinity difference to HCAR3” for short) in the experiment with HCAR3 was 100- to 1,000 fold.
With `O=C(O)c1cc(N(Cc2ccsc2)Cc2ccsc2)n[nH]1` [6O, 3-[bis(thiophen-3-ylmethyl)amino]-1H-pyrazole-5-carboxylic acid], on wild-type HCAR3, the “efficacy among the four ligands by surface plasmon resonance” value was “highest efficacy among these four ligands”. For the same molecule, the “cAMP response (normalized)” value was 75.8023 and 73.3702 and 70.1872 with HCAR2 N86L (6O-HCAR2 N86L, log[M] -3, Fig. S14B); 70.0938 and 69.3817 and 72.4279 with HCAR2 N86L (6O-HCAR2 N86L, log[M] -4, Fig. S14B); 77.2869 and 68.2771 and 76.7503 in the experiment on HCAR2 N86L (6O-HCAR2 N86L, log[M] -5, Fig. S14B); 87.0105 and 88.7719 and 89.0756 with HCAR2 N86L (6O-HCAR2 N86L, log[M] -6, Fig. S14B); 92.1091 and 85.2704 and 84.4838 with HCAR2 N86L (6O-HCAR2 N86L, log[M] -7, Fig. S14B); 95.6219 and 96.9675 and 90.6554 with HCAR2 N86L (6O-HCAR2 N86L, log[M] -8, Fig. S14B). Further, the “cAMP response (normalized)” value is 95.5893 and 94.7012 and 97.44 in the experiment on HCAR2 N86L (6O-HCAR2 N86L, log[M] -9, Fig. S14B); 99.7701 and 103.601 and 102.183 with HCAR2 N86L (6O-HCAR2 N86L, log[M] -10, Fig. S14B). Also, in the experiment on HCAR3, the “higher affinity to HCAR3 than to HCAR2” value is “at least 100 fold”. Also, the “affinity difference to HCAR3” value in the experiment with HCAR3 is listed as 100- to 1,000 fold.
Regarding `CC(C)n1nnc2cc(C(=O)O)ccc21` [IBC293, 1-propan-2-ylbenzotriazole-5-carboxylic acid], the “cAMP response (normalized)” value with HCAR2 N86L (IBC293-HCAR2 N86L, log[M] -3, Fig. S14C) is 79.8778 and 75.4919 and 74.9151; in the experiment with HCAR2 N86L (IBC293-HCAR2 N86L, log[M] -4, Fig. S14C), 76.5789 and 72.1623 and 89.1848; with HCAR2 N86L (IBC293-HCAR2 N86L, log[M] -5, Fig. S14C), 83.4897 and 75.4819 and 86.0148; in the experiment with HCAR2 N86L (IBC293-HCAR2 N86L, log[M] -6, Fig. S14C), 92.474 and 94.1647 and 90.5718; in the experiment on HCAR2 N86L (IBC293-HCAR2 N86L, log[M] -7, Fig. S14C), 100.025 and 101.905 and 97.6855; in the experiment with HCAR2 N86L (IBC293-HCAR2 N86L, log[M] -8, Fig. S14C), 96.4886 and 103.749 and 98.8962. In addition, the “cAMP response (normalized)” value in the experiment on HCAR2 N86L (IBC293-HCAR2 N86L, log[M] -9, Fig. S14C) was 106.585 and 93.0489 and 96.2716; in the experiment with HCAR2 N86L (IBC293-HCAR2 N86L, log[M] -10, Fig. S14C) it was 101.501 and 101.566 and 98.9795. Further, in the experiment on HCAR3, the “higher affinity to HCAR3 than to HCAR2” value is recorded as “at least 100 fold”. Also, the “affinity difference to HCAR3” value with HCAR3 is 100- to 1,000 fold. On HCAR3 R111A, the “effect of R111A mutation on agonist action at HCAR3 (cAMP assay)” value is “barely interfered HCAR3 activation”.
